{"source": "patent EP2093218A1", "about": "“Arylalkyl substituted imidazolidinones” (Fariello, Ruggero, priority 2008, dated 2009)", "key": {"[1]": {"test_system": "PTZ-treated mice", "assay": "Chemically induced seizures (pentylenetetrazole, PTZ)", "type": "in vivo", "conditions": "for % Protection on PTZ induced convulsions: PTZ 90 mg/kg i.p. 30 min after compound, 20 mice", "method": "Seizure-inducer pentylenetetrazole (PTZ) (90 mg/kg i.p.) was administered to mice 30 min after i.p. administration of the test compound.\nCompound of Example 1 at the doses of 10 and 30 mg/kg i.p. was able to protect the animals from PTZ-induced convulsions. […]"}, "[2]": {"test_system": "mice", "assay": "Maximal Electroshock Test (MES)", "type": "in vivo", "conditions": "for MES % Protection from Tonic Extension: 20 mice; for Time of Straightening Reflex Loss: mean of 20 mice", "method": "MES seizures were induced by electroconvulsometer (ECT Unit Ugo Basile, Italy). Mice received an electroshock (50 mA at 60 Hz for 0.2 s duration) through intra-corneal electrodes. This current intensity elicited complete tonic extension of the hindlimbs in control mice. The stimulus was applied 30 min or 60 min after intraperitoneal (i.p.) or oral (p.o.) administration of the test compound, respectively. To evaluate the drug effect on the seizure severity, time of Straightening Reflex Loss and the presence of tonic hindlimb extension were selected as the parameters."}, "[3]": {"conditions": "10 mg/kg i.p., stimulus 30 min after administration"}, "[4]": {"conditions": "30 mg kg^-1 p.o., stimulus 60 min after administration"}}, "note": "Marks after values point to notes of the source that are not given here.", "data": [{"smiles": "C[C@H]1C(=O)NC(C)(C)N1Cc1ccc(OCc2cccc(F)c2)cc1", "note": "[Example 1, (S)-(-)-1-[4-(3-Fluoro-benzyloxy)-benzyl]-2,2,5-trimethyl-imidazolidin-4-one]", "values": [{"measurement": "% Protection on PTZ induced convulsions", "setting": "[1]; 3 mg/kg i.p.", "result": 0, "unit": "%"}, {"measurement": "% Protection on PTZ induced convulsions", "setting": "[1]; 10 mg/kg i.p.", "result": 40, "unit": "%"}, {"measurement": "% Protection on PTZ induced convulsions", "setting": "[1]; 30 mg/kg i.p.", "result": 90, "unit": "%"}, {"measurement": "protection from PTZ-induced convulsions (in words)", "setting": "[1]; highest dose (30 mg/kg i.p.)", "result": "almost complete"}, {"measurement": "MES % Protection from Tonic Extension", "setting": "[2]; [3]", "result": "50* %"}, {"measurement": "Time of Straightening Reflex Loss", "setting": "[2]; [3]", "result": "66.8 ± 9.3", "unit": "s"}, {"measurement": "MES % Protection from Tonic Extension", "setting": "[2]; [4]", "result": 30, "unit": "%"}, {"measurement": "Time of Straightening Reflex Loss", "setting": "[2]; [4]", "result": "56.8 ± 6.3", "unit": "s"}, {"measurement": "anticonvulsant activity in MES test (in words)", "setting": "[2]; either after i.p. (10 mg/kg) or oral (30 mg/kg) administration", "result": "significant anticonvulsant activity"}]}]}
